Where a name gives a salt, the structure may show the parent alone.
Key:
[1] = pH 3.5
physchem = settings: pH 3.5, water, thermodynamic from solid
[2] = Dynamic vapor sorption (moisture balance); type: physicochemical
Procedure: Moisture balance data was collected using a VTI SGA 100 symmetrical vapor sorption analyzer. Relative humidity was varied in increments of 5%, between 5% and 95% relative humidity during the adsorption run, and from 95% to 5% relative humidity during the desorption run. Equilibrium criteria was set at 0.01% weight change in 1 minute with a max equilibrium time of 180 minutes. Approximately 1-15 mg of sample was used.

[3] = Water solubility (24 hour slurry experiment); settings: pH 3.8, water, thermodynamic from solid

Row | SMILES | phase change during the slurry experiment [1] | solubility at 24 h (physchem) [mg/mL] | weight change, dynamic vapor sorption ([2]; above 15% relative humidity, upon reaching 95% relative humidity) [%] | weight loss, dynamic vapor sorption ([2]; between about 30% and about 5% RH) | total weight gain, dynamic vapor sorption ([2]; between about 40% and about 95% relative humidity) | hygroscopicity ([2]; dynamic vapor sorption) | phase change after the vapor sorption experiment ([2]; examined by XRPD) | solubility [3] [mg/mL]
1 | COC(=O)N1CCN(Cc2cccc(NC(=O)Nc3ccc(C)nc3)c2F)CC1 [Form A, omecamtiv mecarbil dihydrochloride hydrate] | no phase change | > 40 | ~1.0 | about 2.7 wt % | about 0.55 wt. % | non-hygroscopic | No phase change | 
2 | COC(=O)N1CCN(Cc2cccc(NC(=O)Nc3ccc(C)nc3)c2F)CC1 [dihydrochloride salt, omecamtiv mecarbil dihydrochloride hydrate] |  |  |  |  |  |  |  | > 40

Reference: US12221417B2, “Salt of omecamtiv mecarbil and process for preparing salt” (Cytokinetics, Inc., priority 2013, dated 2025)
